Results taken from US6242494A, “Substituted β-amino acid inhibitors of methionine aminopeptidase-2” (Abbott Laboratories, priority 1999, dated 2001).
Structures can show the parent of a compound that is named as a salt. Where two headings read alike, the source gives them in different places.

Columns and labels:
[1] = molecular target: T1, methionine aminopeptidase-2 (MetAP2) (Homo sapiens, UniProt P50579); assay: Inhibition of MetAP2 enzyme activity (96-well, Met-Ala-Ser substrate, L-amino acid oxidase/peroxidase/ortho-dianisidine, 450 nm); assay type: biochemical; conditions: pH 7.4, Met-Ala-Ser substrate, 20 minutes
T1 construct: made in house; host or cells: insect cells, baculovirus system (secreted, purified from culture supernatant)
T1 sequence (P50579 whole entry): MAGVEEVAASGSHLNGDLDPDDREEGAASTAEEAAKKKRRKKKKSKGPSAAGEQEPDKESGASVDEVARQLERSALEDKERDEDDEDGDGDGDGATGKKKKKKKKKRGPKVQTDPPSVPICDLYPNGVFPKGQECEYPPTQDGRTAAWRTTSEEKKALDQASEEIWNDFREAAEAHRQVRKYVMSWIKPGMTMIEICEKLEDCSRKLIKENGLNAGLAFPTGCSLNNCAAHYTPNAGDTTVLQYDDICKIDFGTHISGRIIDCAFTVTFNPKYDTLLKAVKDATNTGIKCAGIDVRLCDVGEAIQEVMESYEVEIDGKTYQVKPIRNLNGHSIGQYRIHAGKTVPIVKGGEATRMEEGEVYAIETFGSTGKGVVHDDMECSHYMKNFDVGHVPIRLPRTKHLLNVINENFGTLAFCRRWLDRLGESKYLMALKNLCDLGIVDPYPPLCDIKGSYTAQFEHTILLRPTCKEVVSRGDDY

angiogenesis = conditions: cited from earlier work; for inhibition of angiogenesis: result in words
[2] = test system: type 2 methionine aminopeptidase, MetAP2; conditions: result in words; cited from earlier work
endothelial cell cycle = conditions: late G1 phase; result in words; cited from earlier work
MetAP2 = conditions: result in words; cited from earlier work
[3] = IC50, recombinant MetAP2 4 μg/mL
[4] = recombinant MetAP2 4 μg/mL, read-out: IC50

N[C@H](CC1CCCCC1)C(O)C(=O)NCCc1ccc(S(N)(=O)=O)cc1 (stereo partly drawn) [Example 88, (2RS,3R)-3-amino-2-hydroxy-4-cyclohexyl)butanoyl-L-alanine-4-sulfonamide benzyl ester hydrochloride]
IC50 [1, 3]: 2200 nM

CC(C)(NC(=O)C(O)[C@H](N)CC1CCCCC1)C(=O)OCc1ccccc1 (some centres unmarked) [Example 89, Hydrochloride]
IC50 [1, 3]: 6600 nM

C[C@H](NC(=O)C(O)[C@H](N)CC1CCCCC1)C(=O)OC1CCCCC1 (stereo partly drawn) [Example 90, (2RS,3R)-3-Amino-2-hydroxy-4-cyclohexyl)butanoyl-L-alanine Cyclohexyl Ester Hydrochloride]
IC50 [1, 3]: 2300 nM

C[C@H](NC(=O)C(O)[C@H](N)CC1CCCCC1)C(=O)OCc1ccccc1CS(=O)(=O)c1ccccc1 (stereo partly drawn) [Example 91, (2RS,3R)-3-Amino-2-hydroxy-4-cyclohexyl)butanoyl-L-alanine-2-((phenylsulfonyl)methyl)benzyl Ester Hydrochloride]
IC50 [1, 3]: 2300 nM

C[C@H](NC(=O)C(O)[C@H](N)CC1CCCCC1)C(=O)OCc1ccc(C(C)(C)C)cc1 (stereo partly drawn) [Example 93, (2RS,3R)-3-Amino-2-hydroxy-4-cyclohexyl)butanoyl-L-alanine 4-tert-butylbenzyl Ester Hydrochloride]
IC50 [1, 3]: 5400 nM

COC(=O)c1ccc(COC(=O)[C@H](C)NC(=O)C(O)[C@H](N)CC2CCCCC2)cc1 (stereo partly drawn) [Example 94, (2RS,3R)-3-Amino-2-hydroxy-4-cyclohexyl)butanoyl-L-alanine 4-methoxycarbonylbenzyl Ester Hydrochloride]
IC50 [1, 3]: 910 nM

C[C@H](NC(=O)C(O)[C@H](N)CC1CCCCC1)C(=O)OCc1ccc(C(F)(F)F)cc1 (stereo partly drawn) [Example 95, (2RS,3R)-3-Amino-2-hydroxy-4-cyclohexyl)butanoyl-L-alanine 4-trifluoromethylbenzyl Ester Hydrochloride]
IC50 [1, 3]: 5200 nM

C[C@H](NC(=O)C(O)[C@H](N)CC1CCCCC1)C(=O)OCc1ccc(CC(=O)OCC(=O)c2ccccc2)cc1 (stereo partly drawn) [Example 96, (2RS,3R)-3-Amino-2-hydroxy-4-cyclohexyl)butanoyl-L-alanine-(4-(methyl)phenyl Acetic Acid Phenacyl Ester) Hydrochloride]
IC50 [1, 3]: 2900 nM

N[C@H](CC1CCCCC1)C(O)C(=O)NCc1ccc(Cl)cc1Cl (stereo partly drawn) [Example 97, (2RS,3R)-3-Amino-4-cyclohexyl)-N-(2,4-dichlorobenzyl)-2-hydroxybutanamide Hydrochloride]
IC50 [1, 3]: 3000 nM

CC(NC(=O)C(O)[C@H](N)CC1CCCCC1)c1cccc2ccccc12 (stereo partly drawn) [Example 101, (2RS,3R,1'RS)-3-Amino-4-cyclohexyl-2-hydroxy-N-(1-(1-naphthyl)ethyl)butanamide Hydrochloride]
IC50 [1, 3]: 310 nM

C[C@H](NC(=O)C(O)[C@H](N)Cc1ccccc1)C(=O)OCc1ccccc1 (some centres unmarked) [Example 105, Hydrochloride]
IC50 [1, 3]: 19000 nM

CCCC[C@H](NC(=O)C(O)[C@H](N)CC1CCCCC1)C(=O)OC (stereo partly drawn) [Example 129, methyl (2RS,3R,2'S)-2-((3-amino-4-cyclohexyl-2-hydroxybutanoyl)amino)hexanoate hydrochloride]
IC50 ([1]; recombinant MetAP2 4 μg/mL): 27000 nM

CCOC(=O)[C@H](CF)NC(=O)C(O)[C@H](N)CC1CCCCC1 (stereo partly drawn) [Example 135, ethyl (2RS,3R,2'R)-2-((3-amino-4-cyclohexyl-2-hydroxybutanoyl)amino)-3-fluoropropanoate trifluoroacetate]
IC50 [1, 3]: 3200 nM

CC(C)(C)c1ccc(COC(=O)[C@@H](CO)NC(=O)C(O)[C@H](N)CC2CCCCC2)cc1 (stereo partly drawn) [Example 137, 4-(tert-butyl)benzyl (2RS,3R,2'R)-2-((3-amino-4-cyclohexyl-2-hydroxybutanoyl)amino-3-hydroxypropanoate trifluoroacetate]
IC50 [1, 3]: 8400 nM

N[C@H](CC1CCCCC1)C(O)C(=O)N[C@@H](CO)C(=O)OCc1ccc([N+](=O)[O-])cc1 (stereo partly drawn) [Example 138, 4-nitrobenzyl (2RS,3R,2'S)-2-((3-amino-4-cyclohexyl-2-hydroxybutanoyl)amino-3-hydroxypropanoate trifluoroacetate]
IC50 [1, 3]: 1600 nM

N[C@H](CC1CCCCC1)C(O)C(=O)N[C@@H](CO)C(=O)OCc1cccc([N+](=O)[O-])c1 (stereo partly drawn) [Example 139, 3-nitrobenzyl (2RS,3R,2'S)-2-((3-amino-4-cyclohexyl-2-hydroxybutanoyl)amino)-3-hydroxypropanoate trifluoroacetate]
IC50 [1, 3]: 1700 nM

N[C@H](CC1CCCCC1)C(O)C(=O)N[C@@H](CO)C(=O)OCc1ccc(C(F)(F)F)cc1 (stereo partly drawn) [Example 140, 4-(trifluoromethyl)benzyl (2RS,3R,2'S)-2-((3-amino-4-cyclohexyl-2-hydroxybutanoyl)amino)-3-hydroxypropanoate trifluoroacetate]
IC50 [1, 3]: 2200 nM

N[C@H](CC1CCCCC1)C(O)C(=O)N[C@@H](CO)C(=O)OCc1cccc(OC(F)(F)F)c1 (stereo partly drawn) [Example 141, 3-(trifluoromethoxy)benzyl (2RS,3R,2'S)-2-((3-amino-4-cyclohexyl-2-hydroxybutanoyl)amino)-3-hydropropanoate trifluoroacetate]
IC50 [1, 3]: 3700 nM

CC(C)(C)c1ccc(NC(=O)C(O)[C@H](N)CC2CCCCC2)cc1 (some centres unmarked) [Example 150]
IC50 [1, 3]: 3100 nM

CC(C)(C)c1ccc(CNC(=O)C(O)[C@H](N)CC2CCCCC2)cc1 (stereo partly drawn) [Example 156, (2RS,3R)-3-amino-N-(4-tert-butyl)benzyl-4-cyclohexyl-2-hydroxybutanamide]
IC50 [1, 3]: 3900 nM

N[C@H](CC1CCCCC1)C(O)C(=O)NCc1cccc(C(F)(F)F)c1 (some centres unmarked) [Example 157]
IC50 [1, 3]: 1600 nM

N[C@H](CC1CCCCC1)C(O)C(=O)NCCc1c(Cl)cccc1Cl (stereo partly drawn) [Example 165, (2RS,3R)-3-amino-4-cyclohexyl-N-(2,6-dichlorophenethyl)-2-hydroxybutanamidehydrochloride]
IC50 [1, 3]: 260 nM

N[C@H](CC1CCCCC1)C(O)C(=O)Nc1ccccc1OC(F)(F)F (stereo partly drawn) [Example 169, (2RS,3R)-3-amino-4-cyclohexyl-2-hydroxy-N-(2-(trifluoromethoxy)phenyl)butanamide hydrochlordie]
IC50 [1, 3]: 3300 nM

CC(C)CCCC(C)NC(=O)C(O)[C@H](N)CC1CCCCC1 (stereo partly drawn) [Example 211, (2RS,3R)-3-amino-4-cyclohexyl-N-(1.5-dimethylhexyl)-2-hydroxybutanamide Hydrochloride]
IC50 [1, 3]: 2400 nM

N[C@H](CC1CCCCC1)C(O)C(=O)NCc1cccc2ccccc12 (stereo partly drawn) [Example 235, (2RS,3R)-3-amino-4-cyclohexyl-2-hydroxy-N-(1-napthylmethyl)butanamide Hydrochloride]
IC50 [1, 3]: 970 nM

CO[C@@H]1[C@H](OC(=O)NC(=O)CCl)CC[C@]2(CO2)[C@H]1[C@@]1(C)O[C@@H]1CC=C(C)C [TNP-470, O-(chloroacetylcarbamoyl)fumagillol]
potency as angiogenesis inhibitor relative to natural precursor fumagillin (angiogenesis; more potent than fumagillin): 50 fold
inhibition of angiogenesis (angiogenesis): potent inhibitors of angiogenesis
binding to MetAP2 [2]: bind to a common bifunctional protein, type 2 methionine aminopeptidase, MetAP2
inhibition of neovascularization by arresting the endothelial cell cycle (endothelial cell cycle): effective in inhibiting neovacularization by arresting the endothelial cell cycle in the late G1 phase
mode of MetAP2 inhibition (MetAP2): irreversible inhibitors

CO[C@@H]1[C@H](OC(=O)/C=C/C=C/C=C/C=C/C(=O)O)CC[C@]2(CO2)[C@H]1[C@@]1(C)O[C@@H]1CC=C(C)C [fumagillin]
inhibition of angiogenesis (angiogenesis): potent inhibitors of angiogenesis
inhibition of neovascularization by arresting the endothelial cell cycle (endothelial cell cycle): effective in inhibiting neovacularization by arresting the endothelial cell cycle in the late G1 phase
mode of MetAP2 inhibition (MetAP2): irreversible inhibitors

(2RS,3R)-3-Amino-2-hydroxy-4-cyclohexyl)butanoyl-L-alanine Cyclopropyl Ester Hydrochloride [Example 92]
IC50 [1, 4]: 1400 nM

(((2RS,3R)-3-amino-4cyclohexyl-2-hydroxybutanoyl)amino)(2,5-dimethoxybenzyl)chloronium hydrochloride [Example 163]
IC50 [1, 4]: 480 nM
